# Data: PubChem BioAssay (NCI)
#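 Interpolation was linear, between the two tested concentrations surrounding the appropriate level; five concentrations were tested over 48 hours in 96-well plates. TGI: concentration producing complete growth inhibition.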
# Tests used:
# Assay in all cases: NCI-60 cell line screen, 48 h
# M14 melanoma = test system: M14 melanoma
# BT-549 breast = test system: BT-549 breast
# MOLT-4 leukemia = test system: MOLT-4 leukemia
# OVCAR-5 ovarian = test system: OVCAR-5 ovarian
# SN12C renal = test system: SN12C renal
# SF-295 CNS = test system: SF-295 CNS
# KM12 colon = test system: KM12 colon
# RPMI-8226 leukemia = test system: RPMI-8226 leukemia
# UACC-257 melanoma = test system: UACC-257 melanoma
# HOP-62 NSCLC = test system: HOP-62 NSCLC
# 786-0 renal = test system: 786-0 renal
SMILES,TGI (M14 melanoma) [µM],TGI (BT-549 breast) [µM],TGI (MOLT-4 leukemia) [µM],TGI (OVCAR-5 ovarian) [µM],TGI (SN12C renal) [µM],TGI (SF-295 CNS) [µM],TGI (KM12 colon) [µM],TGI (RPMI-8226 leukemia) [µM],TGI (UACC-257 melanoma) [µM],TGI (HOP-62 NSCLC) [µM],TGI (786-0 renal) [µM]
O=C1C(N=Nc2ccc(-c3nc4ccccc4[nH]3)cc2)NC(=S)N1c1ccccc1 (stereo not drawn),> 100,> 100,48.8,> 100,> 100,> 100,37.5,60.2,> 100,> 100,39
CCOC(=O)C(C)c1nc2cc(N3CCN(C)CC3)c(F)cc2[nH]c1=O (stereo not drawn),> 100,> 100,> 100,> 100,> 100,> 100,> 100,> 100,> 100,> 100,> 100
O=C1O[C@]2(c3ccccc3)C(c3ccccc3)=C[C@]2(C(=O)c2ccccc2)C1=O,> 100,> 100,22.3,> 100,> 100,> 100,> 100,64.9,> 100,> 100,85.7
COc1ccc(/C=C2\CN(C)Cc3c2[nH]c(=O)c(C#N)c3-c2ccc(OC)cc2)cc1,> 100,> 100,> 100,> 100,> 100,> 100,> 100,71.6,> 100,> 100,51.1
NCCCCNC1(c2cc3ccccc3s2)CCCCC1,3.8,25.4,8.37,19.2,25.1,8.83,10.7,6.1,3.38,20,3.95
O=C(/C=C/c1ccccc1O)/C=C/c1ccccc1O,3.55,3.28,> 100,3.14,3.65,3.89,3.3,0.76,21.8,5.76,3.22
COc1ccc2c(c1)-c1oc3ccccc3c(=O)c1CO2,> 100,96.8,> 100,> 100,77.9,> 100,> 100,> 100,99.3,> 100,> 100
O=c1[nH]c2ccccc2c2oc(-c3ccccc3)nc12,> 100,> 100,87.8,> 100,43.4,57.6,> 100,70,> 100,39,56.1
OCCO[P+]1(OCCO)n2c3ccc2C(c2ccccc2)=C2C=CC(=N2)C(c2ccccc2)=c2ccc(n21)=C(c1ccccc1)C1=NC(=C3c2ccccc2)C=C1,0.278,0.305,0.701,1.28,0.125,0.513,0.21,0.0657,0.0545,1.72,1.28
NC(=O)NCCCC(NC(=O)OCCCCCn1ccc(=O)[nH]c1=O)C(=O)O (stereo not drawn),> 100,> 100,> 100,> 100,> 100,> 100,> 100,> 100,> 100,> 100,> 100
Cc1cc(N=C2C=C(Nc3cc(C)on3)C(=O)c3ccccc32)no1,> 100,74.9,> 100,> 100,> 100,> 100,> 100,> 100,47,> 100,98.8
CN(C)CCn1c(=O)c2ccc3c4c(nn3CCN(C)C)c3ccccc3n(c1=O)c24,1.18,5.5,0.0581,2.89,1.59,0.849,9.91,4.07,3.24,1.88,0.961
Cc1nnc2sc(N/N=C/c3ccccc3)nn12,> 100,> 100,> 100,> 100,> 100,> 100,> 100,> 100,> 100,> 100,> 100
CC(C)(C)OC(=O)NCC(=O)N1CCCN(C(=O)CNC(=O)OC(C)(C)C)CC1,> 100,> 100,> 100,> 100,> 100,> 100,> 100,> 100,> 100,> 100,> 100
CCC(C)C1(O)OC2CC3(C)OC(=CC3=O)/C(C)=C\C3OC(=O)C1(C)C32 (stereo not drawn),> 100,12.8,> 100,> 100,28.6,60.9,24.7,> 100,45.7,> 100,81.8
O=C(O)c1ccc(Nc2nc3ccccc3nc2C(=O)O)cc1,> 100,> 100,> 100,> 100,> 100,> 100,> 100,> 100,> 100,> 100,> 100
Nc1c(S(=O)(=O)O)cc(Nc2cccc(S(=O)(=O)/C=C/S(=O)(=O)O)c2)c2c1C(=O)c1ccccc1C2=O,> 100,> 100,> 100,> 100,> 100,> 100,> 100,> 100,> 100,> 100,> 100

SMILES,TGI (M14 melanoma) [µM],TGI (BT-549 breast) [µM],TGI (MOLT-4 leukemia) [µM],TGI (OVCAR-5 ovarian) [µM],TGI (SN12C renal) [µM],TGI (SF-295 CNS) [µM],TGI (KM12 colon) [µM],TGI (RPMI-8226 leukemia) [µM],TGI (UACC-257 melanoma) [µM],TGI (HOP-62 NSCLC) [µM],TGI (786-0 renal) [µM]
CN(C)CCOC1(CC2CCCCC2)CCC(C(C)(C)C)CC1 (stereo not drawn),4.61,20.4,7.67,17.5,20.6,12,14.4,4.9,11.8,11.2,5.91
O=[N+]([O-])c1ccc(Cl)cc1C=NC12CC3CC(CC(C3)C1)C2,> 100,> 100,63.4,> 100,> 100,> 100,> 91,57.5,> 31.6,> 100,> 95.2
Nc1nc2cc(CNc3ccc(C(=O)NC(CCC(=O)O)C(=O)O)cc3)ccc2nc1-c1ccccc1 (stereo not drawn),> 10,> 10,> 10,> 10,> 10,> 10,> 10,> 10,> 10,> 10,> 10
Cc1c(F)c(N)c2c(=O)cc(-c3ccc(NC(=O)C(N)CCCN=C(N)N)c(F)c3)oc2c1F (stereo not drawn),97.1,51.5,> 100,> 50,45.2,> 56,99.7,> 100,7.41,99.6,> 100
Cc1n(CC(=O)c2ccccc2)nc2sc(N)n[n+]12,> 100,> 100,> 100,> 100,> 100,> 100,> 100,> 100,> 100,> 100,> 100
CN(c1ccccc1Cl)S(=O)(=O)c1ccccc1[N+](=O)[O-],46.3,> 100,> 100,> 100,> 100,> 100,> 100,> 100,> 100,> 100,> 100
O=C(c1ccccc1)N1C(=S)N(c2ccc([N+](=O)[O-])cc2)C(=Nc2ccccc2)C1=Nc1ccccc1,> 100,> 100,> 100,> 100,> 100,> 100,> 100,> 100,> 100,> 100,> 100
Cc1ccc2nc(Cl)c(/C=N/N3C(=O)/C(=C/c4ccc(N(C)C)cc4)N=C3c3ccccc3)cc2c1,> 100,> 100,68.5,> 100,> 100,> 100,> 100,65.3,> 100,> 100,> 100
COc1cc2c(cc1Cl)n([O-])c(C#N)c(N1CCN(c3ccc([N+](=O)[O-])cc3)CC1)[n+]2=O,> 100,> 100,> 68,> 100,> 100,> 100,> 100,> 100,> 100,> 62.8,> 100
CCOc1cc(C2SCC(=O)N2c2nc3cc4sc(N5C(=O)CSC5c5ccc(O)c(OCC)c5)nc4cc3s2)ccc1O (stereo not drawn),> 100,> 85.4,> 100,> 100,> 100,> 100,> 100,> 100,> 58.5,> 100,> 100
C[C@H](CCC1=NCCN1)[C@H]1CC[C@H]2[C@@H]3CC[C@@H]4C[C@H](O)CC[C@]4(C)[C@H]3C[C@H](O)[C@]12C,35.6,33.1,16.1,28.1,34,29,24.1,30,28.7,28.9,33
CCOC(=O)C(NCc1cccc(C(F)(F)F)c1)(NC(=O)c1ccccc1)C(F)(F)F (stereo not drawn),> 100,56.1,> 100,> 100,> 100,> 100,> 100,94.6,68.7,> 100,79.5
Cc1cccc2c1C/C(=C\c1cccc(C)c1C(=O)O)C2=O,> 100,> 100,> 100,> 100,> 100,> 100,> 100,> 100,> 100,> 100,> 100
COc1cc(/C=C/C(=O)OC[C@H](Br)[C@H](OC(C)=O)c2ccc3c(c2)OCO3)cc(OC)c1OC,> 100,> 100,> 100,> 100,> 100,> 100,> 100,> 100,> 100,> 100,> 100
COc1ccc(C2(C3c4cc(OC)c(OC)cc4CCN3C)SCCCS2)cc1O (stereo not drawn),> 100,> 100,> 100,> 100,> 100,> 100,> 100,> 100,> 100,> 100,> 100
N#Cc1nc(/C=C/c2ccccc2)oc1N,> 100,> 100,> 100,> 100,> 100,> 100,> 100,> 100,> 100,> 100,> 100
